Numbered stars: 1 amine (or outer) side, 2 acyl side, 3 side chain; on linkers, the order of the positions; unused ones are H or OH. Bridge positions count the residues as written; N and C are the ends. Square brackets hold non-standard residues; d marks the D form. Peptide text beside a SMILES is read from it. I, II: the chains in the order shown. Actinocin(9to1) = Cc1c2oc3c(C)ccc(C(=O)[*:1])c3nc-2c(C(=O)[*:2])c(N)c1=O; NMeV = CN[C@H](C(=O)O)C(C)C; Sar = CNCC(=O)O
Target: IN-GCN2 interaction (6xHis-IN / GST-GCN2) (UniProt P04585+Q9P2K8)
Assay: biochemical
Type: binding, HIV-1 IN; human GCN2
Details: screen, single dose 100 µM, single replicate, residual AlphaLISA signal normalized to DMSO control

IN-GCN2 interaction (6xHis-IN / GST-GCN2), sequence (Q9P2K8 192-1024, other chains not shown): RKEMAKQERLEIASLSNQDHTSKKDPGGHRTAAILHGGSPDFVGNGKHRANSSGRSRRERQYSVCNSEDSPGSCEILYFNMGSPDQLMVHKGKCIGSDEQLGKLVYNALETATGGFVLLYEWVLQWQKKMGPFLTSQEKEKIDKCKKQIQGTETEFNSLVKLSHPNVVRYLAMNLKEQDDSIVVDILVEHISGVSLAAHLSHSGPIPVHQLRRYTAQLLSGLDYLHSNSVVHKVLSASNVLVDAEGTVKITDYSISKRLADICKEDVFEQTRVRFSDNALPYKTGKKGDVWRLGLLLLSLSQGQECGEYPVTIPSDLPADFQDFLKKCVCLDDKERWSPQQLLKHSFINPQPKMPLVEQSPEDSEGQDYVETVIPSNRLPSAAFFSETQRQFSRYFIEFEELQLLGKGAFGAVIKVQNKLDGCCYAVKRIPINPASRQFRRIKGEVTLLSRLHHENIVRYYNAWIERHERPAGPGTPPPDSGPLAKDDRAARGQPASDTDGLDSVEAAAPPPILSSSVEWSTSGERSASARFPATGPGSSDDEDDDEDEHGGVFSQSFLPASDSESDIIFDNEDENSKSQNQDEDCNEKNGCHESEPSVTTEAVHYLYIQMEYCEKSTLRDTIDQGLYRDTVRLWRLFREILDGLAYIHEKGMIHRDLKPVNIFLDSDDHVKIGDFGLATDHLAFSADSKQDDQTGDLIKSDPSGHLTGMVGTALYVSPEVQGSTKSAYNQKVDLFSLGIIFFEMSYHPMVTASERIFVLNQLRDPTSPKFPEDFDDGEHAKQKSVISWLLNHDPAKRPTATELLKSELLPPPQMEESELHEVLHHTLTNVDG

SMILES | IN-GCN2 interaction (%) | also measured
COc1cc2c(c(OC)c1OC)-c1ccc(OC)c(=O)cc1[C@@H](NC(C)=O)CC2 [NSC757] | 116.47 | –
CC1(C)[C@H](C(=O)O)CC[C@]1(C)C(=O)O [NSC824] | 90.14 | –
O=C(O)C1(O)C[C@@H](O)C(O)[C@H](O)C1 (some centres unmarked) [NSC1115] | – | IN-GCN2 interaction (%) (listed as 1115): 83.40%
OC[C@H]1O[C@@](CO)(O[C@H]2O[C@H](CO)[C@@H](O)[C@H](O)[C@H]2O)[C@@H](O[C@H]2O[C@H](CO)[C@@H](O)[C@H](O)[C@H]2O)[C@@H]1O [NSC2080] | 102.20 | –
COc1cccc(C=O)c1O [NSC2150] | 88.39 | –
O=C(O)CC(CC(=O)O)C(=O)O [NSC2347] | 84.06 | –
CC1(C)C(CC(=O)O)CC1C(=O)O (centres unmarked) [NSC2802] | 86.94 | –
CCCCCC[C@@H](O)C/C=C\CCCCCCCC(=O)[O-].[Na+] [NSC2835] | 143.81 | –
CC(C)c1ccc2c(c1)CC[C@H]1[C@](C)(C(=O)O)CCC[C@]21C [NSC2952] | 107.26 | –
Cc1c2oc3c(C)ccc(C(=O)N[C@@H]4C(=O)N[C@H](C(C)C)C(=O)N5CCC[C@H]5C(=O)N(C)CC(=O)N(C)[C@@H](C(C)C)C(=O)O[C@@H]4C)c3nc-2c(C(=O)N[C@@H]2C(=O)N[C@H](C(C)C)C(=O)N3CCC[C@H]3C(=O)N(C)CC(=O)N(C)[C@@H](C(C)C)C(=O)O[C@@H]2C)c(N)c1=O [NSC3053] (I: T[dV]P[Sar][NMeV] / II: T[dV]P[Sar][NMeV]; ester I:1-I:C, II:1-II:C; linker I:N-II:N via Actinocin(9to1)) | 121.53 | –
COC1=CC(=O)C(C)=CC1=O [NSC3071] | 99.07 | –
Nc1nc2c(c(=O)[nH]1)N(C=O)C(CNc1ccc(C(=O)N[C@@H](CCC(=O)O)C(=O)O)cc1)CN2 (some centres unmarked) [NSC3590] | 94.67 | –
CC(=O)CCC(=O)O [NSC3716] | 123.74 | –
NC(Cc1cc(I)c(O)c(I)c1)C(=O)O (centres unmarked) [NSC4143] | 75.41 | –
COc1cc([C@H]2c3cc(O)c(OC)cc3C[C@H]3C(=O)OC[C@H]23)ccc1O [NSC4586] | 86.55 | –
CC(C)=CCc1c2c(c3occ(-c4ccc(O)c(O)c4)c(=O)c3c1O)C=CC(C)(C)O2 [NSC5113] | 36.50 | –
CO[C@H]1[C@@H](O)[C@@H](C)O[C@H](O[C@H]2[C@H](Oc3cccc4c(O)c5c(=O)oc6ccc(C)c7c(=O)oc(c34)c5c67)O[C@H](C)[C@H](O)[C@@H]2O)[C@@H]1O [NSC5159] | 121.88 | –
COc1ccc2c(c1OC)C(=O)O[C@@H]2[C@H]1c2c(cc3c(c2OC)OCO3)CCN1C [NSC5366] | 132.74 | –
CCCCCCCCCCCCCCCCCCO [NSC5379] | 92.43 | –
O=c1[nH]cnc2ccccc12 [NSC5863] | 93.27 | –
COC(=O)/C(=C1/OC(=O)C(c2ccccc2)=C1O)c1ccccc1 [NSC5897] | 95.33 | –
C=C[C@]1(C)C=C2CC[C@@H]3[C@](C)(CCC[C@@]3(C)C(=O)O)[C@H]2CC1 [NSC6435] | 127.66 | –
CC1=CC(=O)[C@@H]2C[C@H]1C2(C)C [NSC6832] | 90.37 | –

SMILES | IN-GCN2 interaction (%) | also measured
C[C@@H]1O[C@@H](O[C@@H]2C=C3CC[C@@H]4[C@H](CC[C@]5(C)[C@@H](c6ccc(=O)oc6)CC[C@]45O)[C@@]3(C)CC2)[C@H](O)[C@H](O)[C@H]1O [NSC7521] | 97.97 | –
COc1ccc(C(=O)O[C@H]2CC[C@@]3(C)[C@@H]4CC[C@H]5[C@]6(O)C[C@H](O)[C@@]7(O)[C@@H](CN8C[C@@H](C)CC[C@H]8[C@@]7(C)O)[C@]6(O)C[C@@]53O[C@]24O)cc1OC [NSC7524] | 106.09 | –
C[C@@H]1O[C@@H](O[C@@H]2C=C3CC[C@@H]4[C@H](CC[C@]5(C)[C@@H](c6ccc(=O)oc6)CC[C@]45O)[C@@]3(C)CC2)[C@H](O)[C@H](O)[C@H]1O[C@@H]1O[C@H](CO)[C@@H](O)[C@H](O)[C@H]1O [NSC7525] | 99.88 | –
CC(=O)O[C@H]1C[C@H](O[C@H]2[C@@H](O)C[C@H](O[C@H]3[C@@H](O)C[C@H](O[C@H]4CC[C@@]5(C)[C@H](CC[C@@H]6[C@@H]5CC[C@]5(C)[C@@H](C7=CC(=O)OC7)CC[C@]65O)C4)O[C@@H]3C)O[C@@H]2C)O[C@H](C)[C@H]1O[C@@H]1O[C@H](CO)[C@@H](O)[C@H](O)[C@H]1O [NSC7532] | 117.74 | –
CC(=O)O[C@H]1C[C@H](O[C@H]2[C@@H](O)C[C@H](O[C@H]3[C@@H](O)C[C@H](O[C@H]4CC[C@@]5(C)[C@H](CC[C@@H]6[C@@H]5C[C@@H](O)[C@]5(C)[C@@H](C7=CC(=O)OC7)CC[C@]65O)C4)O[C@@H]3C)O[C@@H]2C)O[C@H](C)[C@H]1O[C@@H]1O[C@H](CO)[C@@H](O)[C@H](O)[C@H]1O [NSC7533] | 107.72 | –
CC(=O)O[C@H]1C[C@H](O[C@H]2[C@@H](O)C[C@H](O[C@H]3[C@@H](O)C[C@H](O[C@H]4CC[C@@]5(C)[C@H](CC[C@@H]6[C@@H]5CC[C@]5(C)[C@@H](C7=CC(=O)OC7)[C@@H](O)C[C@]65O)C4)O[C@@H]3C)O[C@@H]2C)O[C@H](C)[C@H]1O[C@@H]1O[C@H](CO)[C@@H](O)[C@H](O)[C@H]1O [NSC7535] | 83.30 | –
NC(=O)NC1NC(=O)NC1=O (centres unmarked) [NSC7606] | 88.72 | –
O=C(O)/C=C(/CC(=O)O)C(=O)O [NSC7616] | 85.71 | –
Nc1ncnc2c1ncn2[C@@H]1O[C@H](CO)[C@@H](O)[C@H]1O [NSC7652] | 51.17 | –
O=C(O)CCCCCCC[C@@H](O)[C@@H](O)CCCCCCO [NSC7668] | 129.82 | –
COc1c2occc2c(OC)c2c(=O)cc(C)oc12 [NSC8519] | 129.74 | –
Oc1ccc2c(c1)OC[C@]1(O)Cc3cc(O)c(O)cc3[C@H]21 [NSC8661] | 86.68 | –
C/C=C/C(=O)O [NSC8751] | 85.97 | –
C[C@H](CCC(=O)O)[C@H]1CC[C@H]2[C@@H]3CC[C@@H]4C[C@H](O)CC[C@]4(C)[C@H]3C[C@H](O)[C@]12C [NSC8797] | 85.28 | –
CC(C)[C@H]1CC[C@@](C)(C(=O)O)C1 [NSC8973] | 89.12 | –
O=C(O)C1OC(O)C(O)C(O)C1O (centres unmarked) [NSC9248] | 110.72 | –
CO[C@@H]1[C@H](O)CC[C@]2(CO2)[C@H]1[C@@]1(C)O[C@@H]1CC=C(C)C [NSC9665] | 118.70 | –
C[C@]12CC[C@@H]3c4ccc(O)cc4CC[C@H]3[C@@H]1CCC2=O [NSC9699] | 98.84 | –
COc1cc2c(cc1OC)CN1CCc3cc(OC)c(OC)cc3C1C2 (centres unmarked) [NSC10105] | 96.86 | –
CN1CCc2cc3c(cc2C(=O)Cc2ccc4c(c2C1)OCO4)OCO3.Cl [NSC11440] | 160.70 | –
COc1ccc(/C=C/C(=O)c2ccccc2)cc1 [NSC11866] | 81.82 | –
CC(C)=CCC1=C(O)c2ccccc2C(=O)C1=O [NSC11905] | 107.31 | –
COc1cccc2c1cc([N+](=O)[O-])c1c(C(=O)O)cc3c(c12)OCO3 [NSC11926] | 137.25 | –

SMILES | IN-GCN2 interaction (%) | also measured
O=c1ccc2nc3ccc(O)cc3oc-2c1 [NSC12097] | 169.88 | –
O=C(O)C1C2CC3OC(=O)C1C3C2 (centres unmarked) [NSC12444] | 94.03 | –
Br.C=CC1CN2CCC1CC2C(O)c1ccnc2ccc(OC)cc12 (centres unmarked) [NSC12865] | 97.92 | –
CN1CC(=O)NC1=N [NSC13123] | 106.95 | –
CN(C)[C@@H]1C(O)=C(C(N)=O)C(=O)[C@@]2(O)C(O)=C3C(=O)c4c(O)ccc(Cl)c4[C@@](C)(O)[C@H]3C[C@@H]12 [NSC13252] | 93.93 | –
COc1cc(O)c(C(C)=O)c2c1C=CC(C)(C)O2 [NSC14135] | 87.24 | –
O=c1[nH]c(=O)c2[nH]cnc2[nH]1 [NSC14664] | 105.35 | –
O=c1[nH]cnc2nc[nH]c12 [NSC14665] | 108.10 | –
CC1=CC(O)C(O)C2(C)C1CC1OC(=O)C(O)C3C(C)C(O)C4(O)OCC13C42 (centres unmarked) [NSC14974] | 90.88 | –
CC[C@](C)(O)C(=O)O[C@H]1C(=O)O[C@@H]2C[C@H]3C(C)=C[C@H](O)[C@@H](O)[C@]3(C)[C@H]3[C@]4(O)OC[C@]32[C@@H]1[C@@H](C)[C@H]4O [NSC14975] | 117.58 | –
C=C[C@H]1CN2CC[C@H]1C[C@H]2C(=O)c1ccnc2ccc(OC)cc12 [NSC15307] | 84.16 | –
COC(=O)C1=CO[C@@H](C)[C@@H]2CN3CCc4c([nH]c5cc(OC)ccc45)[C@@H]3C[C@H]12 [NSC15624] | 43.70 | –
N#C[C@H](O[C@@H]1O[C@H](CO[C@@H]2O[C@H](CO)[C@@H](O)[C@H](O)[C@H]2O)[C@@H](O)[C@H](O)[C@H]1O)c1ccccc1 [NSC15780] | 121.81 | –
O=C(O)c1ccc(O)c(O)c1 [NSC16631] | 69.74 | –
CC(C)c1ccc(O)c(=O)cc1 [NSC18805] | – | IN-GCN2 interaction (%) (listed as 18805): 75.92%
O=c1cc(-c2ccccc2)oc2ccccc12 [NSC19028] | 58.68 | –
COc1ccc(/C=C/C(=O)c2c(OC)cc(OC)c(OC)c2O)cc1 [NSC19038] | 50.51 | –
COC(=O)[C@@H]1[C@H]2C[C@H]3c4[nH]c5ccccc5c4CCN3C[C@@H]2CC[C@@H]1O [NSC19509] | 68.27 | –
COC(=O)[C@@H]1[C@H](O)[C@H](C)[C@H](O)[C@H](C)/C=C\C=C(/C)C(=O)Nc2c(C)c(OC(C)=O)c3c(c2O)C(=O)C(C)=C2OCOC(=C23)/C(C)=C/[C@@](C)(O)[C@H](O)[C@@H](C)[C@H]1O [NSC19990] | 69.46 | –
O=C(O)c1cc(O)c(O)c(O)c1 [NSC20103] | 83.04 | –
Nc1ncnc2c1ncn2[C@@H]1O[C@H](COP(=O)(O)O)[C@@H](O)[C@H]1O [NSC20264] | 82.61 | –
O=c1cccc2n1C[C@H]1C[C@@H]2CN2CCCC[C@@H]12 [NSC21725] | 90.50 | –
